Values joined by “and” are separate entries in the source; they are usually repeats but may differ in a detail not shown here. Identical values can stand only once.
Legend:
[1] = system: β-Adrenergic (non-selective); assay: Radioligand binding inhibition, β-Adrenergic; settings: 10 µM; radioligand [^3H]DHA; mean of duplicate
Description: (§1) Interaction of MMP with 28 binding sites was examined, including major classes of neurotransmitter receptor, uptake system, and ion channels (Sekisui Medical, Naka, Japan). MMP was tested in all assays at 10 µM. […] 10.2.3 (GraphPad Software, San Diego, CA). Each determination was made in duplicate.
(§2) Test substance concentration : 10 µM, positive substance concentration : 10 µM
(§3) Data are expressed as the mean values of duplicate samples.
(§4) The % inhibition was calculated from “100 – binding ratio”.
(§5) Binding ratio: [(B - N) / (B0 - N)] × 100 (%)
(§6) B: Bound radioactivity in the presence of test substance and positive substance (individual value)
(§7) B0: Total bound radioactivity in the absence of test substance and positive substance (mean value)
(§8) N: Non-specific bound radioactivity (mean value)

[2] = target: T1, Dopamine D1 (Homo sapiens, UniProt P21728); assay: Radioligand binding inhibition, Dopamine D1; settings: 10 µM; radioligand [^3H]SCH23390; mean of duplicate
T1 construct: Sekisui Medical (contract laboratory)
Description: (§9) Interaction of MMP with 28 binding sites was examined, including major classes of neurotransmitter receptor, uptake system, and ion channels (Sekisui Medical, Naka, Japan). MMP was tested in all assays at 10 µM. […] Each determination was made in duplicate.
as §2, §3, §4, §5, §6, §7, §8

[3] = target: T2, Dopamine D2 (Homo sapiens, UniProt P14416); assay: Radioligand binding inhibition, Dopamine D2; settings: 10 µM; radioligand [^3H]Spiperone; mean of duplicate
T2 construct: Sekisui Medical (contract laboratory)
Description: as §1, §2, §3, §4, §5, §6, §7, §8

[4] = target: T3, GABA B (Homo sapiens, UniProt Q9UBS5); assay: Radioligand binding inhibition, GABA B; settings: 10 µM; radioligand [^3H]GABA; mean of duplicate
T3 construct: Sekisui Medical (contract laboratory)
Description: as §9, §2, §3, §4, §5, §6, §7, §8

[5] = system: Glutamate (non-selective); assay: Radioligand binding inhibition, Glutamate non-selective; settings: 10 µM; radioligand [^3H]Glutamic acid; mean of duplicate
Description: as §1, §2, §3, §4, §5, §6, §7, §8

[6] = system: Glutamate (AMPA); assay: Radioligand binding inhibition, Glutamate AMPA; settings: 10 µM; radioligand [^3H]AMPA; mean of duplicate
Description: as §1, §2, §3, §4, §5, §6, §7, §8

[7] = system: Glutamate (Ketamine); assay: Radioligand binding inhibition, Glutamate (Ketamine); settings: 10 µM; radioligand [^3H]Kainic acid; mean of duplicate
[8] = system: Glutamate (NMDA agonist site); assay: Radioligand binding inhibition, Glutamate NMDA agonist site; settings: 10 µM; radioligand [^3H]CGP-39653; mean of duplicate
Description: as §1, §2, §3, §4, §5, §6, §7, §8

[9] = system: Glycine (strychnine site); type: binding; settings: 10 µM; radioligand [^3H]Strychine; mean of duplicate
[10] = target: T4, Histamine H2 (Homo sapiens, UniProt P25021); assay: Radioligand binding inhibition, Histamine H2; settings: 10 µM; radioligand [^125I]Iodoaminopotentidine; mean of duplicate
T4 construct: Sekisui Medical (contract laboratory)
Description: as §1, §2, §3, §4, §5, §6, §7, §8

[11] = target: T5, Histamine H3 (Homo sapiens, UniProt Q9Y5N1); assay: Radioligand binding inhibition, Histamine H3; settings: 10 µM; radioligand [^3H]N-methyl-histamine; mean of duplicate
T5 construct: Sekisui Medical (contract laboratory)
Description: as §9, §2, §3, §4, §5, §6, §7, §8

[12] = target: T6, Serotonin 5HT3 (human) (Homo sapiens, UniProt P46098); assay: Radioligand binding inhibition, Serotonin 5HT3; settings: 10 µM; radioligand [^3H]GR65630; mean of duplicate
T6 construct: Sekisui Medical (contract laboratory that ran the panel)
Description: as §1, §2, §3, §4, §5, §6, §7, §8

[13] = system: Sigma (non-selective); assay: Radioligand binding inhibition and competitive inhibition curve, sigma receptor
Description: as §9
Data are expressed as mean values of duplicate samples.
as §2, §3, §4, §5, §6, §7, §8

[14] = system: Sprague–Dawley rats; assay: Acute toxicity of MMP, single intraperitoneal injection; type: in vivo, rat
Source text: (§10) The MMP was custom synthesized by the Nard Institute (Kobe, Japan) using methods described previously (Toyohara et al. [2020a]). All other chemical reagents were obtained from commercial sources. Male ddY mice were obtained from Japan SLC (Hamamatsu, Japan). Sprague–Dawley rats [Crl: CD(SD)] were obtained from […] (Yokohama, Japan). Animal studies were approved by the Animal Care and Use Committee of the Tokyo Metropolitan Institute for Geriatrics and Gerontology (Approval Nos. 22,015 and 23,007) and Nihon Bioresearch (Hashima, Japan; Approval Nos. 430,085 and 430,086). Acute toxicity studies were performed under the “Revisions of the Guidelines for Single and Repeated Dose Toxicity Studies” (PMDA, 1993). Ames test was performed under the “Guidance on Genotoxicity Testing and Data Interpretation for Pharmaceuticals Intended for Human Use” (PMDA, 2012).
In Japan, the structure of nonclinical toxicology studies for PET drugs in clinical research is the responsibility of the ethics committee of each institution or the subcommittee of specialities of PET drugs. According to the method used previously for approval of PET drugs for clinical use in our institute (Toyohara et al. [2013], [2016], [2020b]; Sakata et al. [2017]), we performed single-arm acute toxicology studies of the active pharmaceutical ingredient (MMP) and final dose formulation ([^11C]MMP injection). Mutagenicity tests will also be conducted, as there are concerns about stochastic effects on genotoxicity.
Acute toxicity studies were performed at the Hashima Research Center, Nihon Bioresearch, under non-Good Laboratory Practice (GLP) control. Acute toxicity of MMP was tested in Sprague–Dawley rats. MMP at a dose of 3.55 mg/kg body weight (0.71 mg/mL in 10 v/v% dimethyl sulfoxide containing water for injection) was injected intraperitoneally into 5-week-old rats weighing 143–172 g (male, n = 5) and 129–135 g (female, n = 5). The dose of 3.55 mg/kg body weight is the 10,000-fold equivalent of the postulated maximum administration dose (1.85 nmol/0.355 µg/kg body weight) of 740 MBq [^11C]MMP, with the lowest molar activity (Am) of 10 MBq/nmol for humans weighing 40 kg. Rats were observed frequently until 1 h and then at 2, 4, and 6 h after the injection on day 1, and thereafter once daily for 14 days for clinical signs of toxicity. Rats were weighed on days 1, 2, 4, 7, 10, and 14. At the end of the 14-day observation period, the rats were euthanized by exsanguination under isoflurane anaesthesia, and a macroscopic analysis of the autopsy samples was performed.

[15] = system: Salmonella typhimurium (TA98, TA100, TA1535, and TA1537); assay: Ames test (reverse bacterial mutation test), Salmonella; type: cell-based; settings: with and without S9 mixture, 78.1–5000 µg/plate
Source text: as §10
Mutagenicity tests were performed at the Hashima Research Center, Nihon Bioresearch, under non-GLP control. MMP was tested for mutagenicity by the Ames test with four histidine-requiring strains of Salmonella typhimurium (TA98, TA100, TA1535, and TA1537) and one strain of Escherichia coli (WP2uvrA), with and without the S9 mixture, at a dose range of 78.1–5000 µg/plate according to the standard method.

T2 sequence (P14416 whole entry): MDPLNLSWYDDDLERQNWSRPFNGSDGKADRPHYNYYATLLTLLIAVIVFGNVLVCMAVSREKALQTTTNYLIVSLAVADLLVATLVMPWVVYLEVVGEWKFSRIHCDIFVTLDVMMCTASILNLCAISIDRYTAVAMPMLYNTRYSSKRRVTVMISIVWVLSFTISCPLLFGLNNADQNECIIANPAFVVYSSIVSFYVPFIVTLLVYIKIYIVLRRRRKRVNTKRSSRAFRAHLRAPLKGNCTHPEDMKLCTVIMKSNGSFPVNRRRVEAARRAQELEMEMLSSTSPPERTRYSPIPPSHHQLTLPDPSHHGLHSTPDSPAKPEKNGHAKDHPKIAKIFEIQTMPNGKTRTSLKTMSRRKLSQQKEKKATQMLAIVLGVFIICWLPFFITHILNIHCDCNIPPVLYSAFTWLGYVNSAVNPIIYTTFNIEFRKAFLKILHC
T1 sequence (P21728 whole entry): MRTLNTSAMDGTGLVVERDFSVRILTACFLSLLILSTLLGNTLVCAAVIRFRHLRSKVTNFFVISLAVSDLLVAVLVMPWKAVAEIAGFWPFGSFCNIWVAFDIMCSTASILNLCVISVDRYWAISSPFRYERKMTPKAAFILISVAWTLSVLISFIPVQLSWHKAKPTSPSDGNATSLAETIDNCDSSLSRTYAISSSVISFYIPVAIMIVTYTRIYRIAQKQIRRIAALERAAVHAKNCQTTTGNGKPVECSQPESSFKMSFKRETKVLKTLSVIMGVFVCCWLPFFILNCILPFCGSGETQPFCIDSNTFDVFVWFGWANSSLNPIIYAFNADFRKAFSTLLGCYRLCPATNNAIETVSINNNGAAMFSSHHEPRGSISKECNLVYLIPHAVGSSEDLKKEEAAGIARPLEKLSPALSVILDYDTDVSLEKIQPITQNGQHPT
T4 sequence (P25021 whole entry): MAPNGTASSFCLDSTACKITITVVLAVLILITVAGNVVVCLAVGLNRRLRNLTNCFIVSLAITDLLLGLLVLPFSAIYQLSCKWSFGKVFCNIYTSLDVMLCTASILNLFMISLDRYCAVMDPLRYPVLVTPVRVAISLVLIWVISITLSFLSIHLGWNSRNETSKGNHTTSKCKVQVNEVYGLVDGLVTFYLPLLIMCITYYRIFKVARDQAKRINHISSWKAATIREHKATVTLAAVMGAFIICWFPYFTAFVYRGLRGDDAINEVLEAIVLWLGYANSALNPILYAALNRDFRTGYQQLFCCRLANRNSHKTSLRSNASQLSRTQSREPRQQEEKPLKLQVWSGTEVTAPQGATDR
T3 sequence (Q9UBS5 15-961 limits assumed): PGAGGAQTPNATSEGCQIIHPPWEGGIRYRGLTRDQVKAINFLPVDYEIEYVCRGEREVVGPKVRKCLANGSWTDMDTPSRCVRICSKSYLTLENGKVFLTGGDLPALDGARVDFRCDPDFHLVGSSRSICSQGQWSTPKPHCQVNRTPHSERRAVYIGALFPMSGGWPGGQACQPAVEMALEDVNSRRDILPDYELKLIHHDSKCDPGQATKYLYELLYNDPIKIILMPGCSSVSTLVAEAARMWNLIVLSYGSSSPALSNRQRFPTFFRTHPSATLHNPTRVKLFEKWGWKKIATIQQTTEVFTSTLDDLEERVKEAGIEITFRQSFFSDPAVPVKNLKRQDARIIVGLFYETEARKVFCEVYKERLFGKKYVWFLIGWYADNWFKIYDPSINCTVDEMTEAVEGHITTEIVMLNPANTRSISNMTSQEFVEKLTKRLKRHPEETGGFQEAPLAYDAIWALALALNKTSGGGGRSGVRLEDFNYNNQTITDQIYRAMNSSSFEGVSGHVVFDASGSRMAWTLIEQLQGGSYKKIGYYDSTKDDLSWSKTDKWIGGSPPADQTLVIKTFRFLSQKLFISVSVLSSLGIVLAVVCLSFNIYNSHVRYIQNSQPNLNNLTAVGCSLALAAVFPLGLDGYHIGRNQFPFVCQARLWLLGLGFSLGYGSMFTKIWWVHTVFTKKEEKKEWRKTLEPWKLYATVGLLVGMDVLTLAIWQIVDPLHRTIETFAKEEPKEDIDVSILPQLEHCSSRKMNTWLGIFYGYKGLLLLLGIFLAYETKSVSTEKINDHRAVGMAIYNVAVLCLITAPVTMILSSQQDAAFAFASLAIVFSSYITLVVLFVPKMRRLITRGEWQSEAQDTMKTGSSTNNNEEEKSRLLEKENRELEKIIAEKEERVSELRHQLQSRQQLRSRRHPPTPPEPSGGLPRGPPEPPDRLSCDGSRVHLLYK
T3 sequence (O75899 42-941 partner): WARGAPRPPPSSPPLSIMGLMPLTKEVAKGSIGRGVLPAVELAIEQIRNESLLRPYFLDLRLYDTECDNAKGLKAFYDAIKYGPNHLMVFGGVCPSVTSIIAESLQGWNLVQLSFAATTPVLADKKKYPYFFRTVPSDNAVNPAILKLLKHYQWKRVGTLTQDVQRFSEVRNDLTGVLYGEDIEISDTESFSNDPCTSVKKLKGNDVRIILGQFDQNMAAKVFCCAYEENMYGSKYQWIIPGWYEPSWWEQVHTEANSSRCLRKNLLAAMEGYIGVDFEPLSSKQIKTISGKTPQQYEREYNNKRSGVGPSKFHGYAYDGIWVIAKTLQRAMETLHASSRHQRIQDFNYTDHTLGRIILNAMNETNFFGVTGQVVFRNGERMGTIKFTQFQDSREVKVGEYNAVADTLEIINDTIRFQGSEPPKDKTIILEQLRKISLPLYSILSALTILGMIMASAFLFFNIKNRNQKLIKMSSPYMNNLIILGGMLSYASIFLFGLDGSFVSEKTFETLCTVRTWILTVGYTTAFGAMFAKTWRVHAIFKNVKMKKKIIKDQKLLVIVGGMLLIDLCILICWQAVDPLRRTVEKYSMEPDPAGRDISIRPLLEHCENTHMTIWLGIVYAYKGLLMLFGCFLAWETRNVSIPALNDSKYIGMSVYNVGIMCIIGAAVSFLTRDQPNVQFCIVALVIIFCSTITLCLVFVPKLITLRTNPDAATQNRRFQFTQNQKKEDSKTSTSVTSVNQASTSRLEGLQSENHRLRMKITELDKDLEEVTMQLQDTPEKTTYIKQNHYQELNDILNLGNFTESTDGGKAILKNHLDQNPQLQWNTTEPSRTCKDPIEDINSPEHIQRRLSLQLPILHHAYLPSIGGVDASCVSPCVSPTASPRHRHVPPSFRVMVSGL
T5 sequence (Q9Y5N1 whole entry): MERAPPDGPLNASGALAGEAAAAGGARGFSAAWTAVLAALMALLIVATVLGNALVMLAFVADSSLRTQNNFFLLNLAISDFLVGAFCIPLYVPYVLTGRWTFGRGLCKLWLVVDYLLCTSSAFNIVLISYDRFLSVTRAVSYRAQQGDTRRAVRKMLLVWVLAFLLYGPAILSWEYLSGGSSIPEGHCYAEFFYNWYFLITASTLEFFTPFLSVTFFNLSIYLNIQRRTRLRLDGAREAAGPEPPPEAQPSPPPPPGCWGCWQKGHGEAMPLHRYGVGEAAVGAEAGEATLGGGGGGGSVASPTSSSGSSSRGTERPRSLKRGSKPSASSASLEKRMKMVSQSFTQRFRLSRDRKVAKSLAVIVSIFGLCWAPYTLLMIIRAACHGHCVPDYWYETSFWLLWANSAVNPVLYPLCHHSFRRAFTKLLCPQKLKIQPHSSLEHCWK
T6 sequence (P46098 24-478): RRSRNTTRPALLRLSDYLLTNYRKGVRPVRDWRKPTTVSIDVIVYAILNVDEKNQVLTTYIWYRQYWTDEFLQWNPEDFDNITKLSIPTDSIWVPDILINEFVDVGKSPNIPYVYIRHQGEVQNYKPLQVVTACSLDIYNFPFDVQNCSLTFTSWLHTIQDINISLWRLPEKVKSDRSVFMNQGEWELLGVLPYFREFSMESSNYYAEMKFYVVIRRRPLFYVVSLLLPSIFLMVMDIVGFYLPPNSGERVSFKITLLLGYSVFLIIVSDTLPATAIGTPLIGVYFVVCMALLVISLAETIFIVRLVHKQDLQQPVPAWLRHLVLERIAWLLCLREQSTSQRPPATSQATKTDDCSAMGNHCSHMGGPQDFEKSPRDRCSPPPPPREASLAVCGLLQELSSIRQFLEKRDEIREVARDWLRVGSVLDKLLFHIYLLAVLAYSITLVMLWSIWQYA

For `Cc1ccc(CC(C)NC(C)C)cc1` (stereo not shown) [MMP, N-isopropyl-p-methylamphetamine], the “Inhibition ratio (%)” value [1] was 32.80%, the “Inhibition ratio (%)” value [2] was 6.90% and the “Inhibition ratio (%)” value [3] was 6.04%. The “Inhibition ratio (%)” value [4] was 1.59%, the “Inhibition ratio (%)” value [5] was 0.00% and the “Inhibition ratio (%)” value [6] was 5.98%. For the same compound, the “Inhibition ratio (%)” value [7] was 11.86%, the “Inhibition ratio (%)” value [8] was 4.63% and the “Inhibition ratio (%)” value [9] was 4.11%. The “Inhibition ratio (%)” value [10] was 14.43%, the “Inhibition ratio (%)” value [11] was 3.82% and the “Inhibition ratio (%)” value [12] was 0.91%. For the same compound, the “Inhibition ratio (%)” value ([13]; 10 µM, radioligand [^3H]DTG, mean of duplicate) was 86% and 85.89%, the IC50 ([13]; competitive inhibition curve, [^3H]DTG, duplicate) was 1100 nM and the “affinity for sigma receptor relative to existing sigma receptor ligand (haloperidol)” value ([13]; fraction of the affinity of haloperidol) was “approximately 1/100”. The “NOAEL as multiple of postulated maximum administration dose” value ([14]; 740 MBq, Am 10 MBq/nmol, human body weight 40 kg) was 1,600 times, the acute toxicity ([14]; rats, 3.55 mg/kg body weight (10,000 times potential maximum clinical dose)) was “No acute toxicity” and the body weight gain ([14]; rats, single i.p. 3.55 mg/kg) was “normal gains in body weight”. The post-mortem macroscopic examination ([14]; rats, single i.p. 3.55 mg/kg) was “no abnormalities”, the mortality ([14]; rats, single i.p. 3.55 mg/kg, 14-day observation) was “no mortality” and the “clinical signs of toxicity” value ([14]; rats, single i.p. 3.55 mg/kg, 15-day period) was “no clinical signs of toxicity”. The mutagenic activity [15] was “no mutagenic activity”.

Source: publication PMC11266321 (EJNMMI Radiopharmacy and Chemistry, 2024)
